In PMC6368365, “Didehydro-Cortistatin A Inhibits HIV-1 by Specifically Binding to the Unstructured Basic Region of Tat” (mBio, 2019):
Like-named read-outs stand apart in the source and are kept apart here.

Key:
recombinant Tat = target: T1, recombinant Tat (Human immunodeficiency virus type 1 group M subtype B, UniProt P69697); assay: DARTS assay (protection from proteinase K); type: binding, HIV-1; settings: 20 min room temperature, Western blot
T1 construct: pTatC6H-1 (NIH AIDS Reagent Program) plasmid encoding C-terminal 6xHistidine Tat1-86 (HXB3, subtype B); made in house; host or cells: E. coli BL21 (plasmid pTatC6H-1, NIH AIDS Reagent Program)
T1 sequence (P69697 whole entry): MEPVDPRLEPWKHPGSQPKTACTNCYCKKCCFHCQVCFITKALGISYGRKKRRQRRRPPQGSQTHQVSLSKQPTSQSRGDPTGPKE
Method: To confirm that dCA stabilizes Tat structure, we performed drug affinity responsive target stability (DARTS) assays to measure the protection against proteolysis conferred on the target protein by interaction with a small molecule. For this purpose, we incubated Tat with several concentrations of dCA and different concentrations of proteinase K (PK) for 20 min at room temperature. PK digests proteins preferably after hydrophobic, aliphatic, and aromatic residues. The protection was determined by Western blotting with an anti-His antibody (Fig. 5B). Tat alone was proportionally degraded with increasing concentrations of PK. […] Both the fluorescence assays and the DARTS assays support the notion that dCA stabilizes Tat protein.
dCA or an analog of dCA (analog 2) was incubated with 30 ng of recombinant Tat for 20 min at room temperature. Then PK (Ambion) was added at different concentrations. The remaining Tat was quantified by Western blotting using polyclonal anti-Tat antibodies (AIDS Reagent Program) at a 1:2,000 dilution.

NL4-3 strain = assay: HIV-1 NL4-3 infection of HeLa-CD4-LTR-LacZ reporter cells, LacZ measured 72 h later; type: cell-based; settings: Human immunodeficiency virus 1, NL43
Text: To understand the structure-function relationship of the dCA molecule with respect to our structural model, we synthesized and characterized the ability of 11 analogs of dCA to inhibit HIV infection (Table 2). […] We used HeLa-CD4 cells stably expressing the HIV-1 5′ LTR driving β-galactosidase production (HeLa-CD4-LTR-LacZ cells) as a reporter for the infection with isolate NL4-3. Table 2 summarizes the IC50, 50% cytotoxic concentration (CC50), and therapeutic index (TI) for each compound. The loss of dCA activity was directly associated with the positioning and the chemical environment of the azote on the F ring and the presence of oxygen in ring B. Moreover, the E-F “skeleton angle” and the distance between the A-B-C-D and F rings affected the activity by more than 50-fold (analogs 7 and 10).
The activity of Tat in HeLa-CD4-LTR-Luc and OM10.1 cells was verified by a transactivation assay as described in reference. In HeLa-CD4-LTR-LacZ cells, the assay was performed as described in reference. A detailed protocol is provided in Text S1.
Transactivation assay. In HeLa-CD4-LTR-Luc cells and OM10.1 cells. The activity of Tat was verified by a transactivation assay as previously reported (13). Briefly, HeLa-CD4-LTR-Luc cells and OM10.1 were plated at 1×10^5 and 8x10^5 cells per well of a 6-well plate respectively. The following day, recombinant Tat protein was added to the cells in culture media without serum and in the presence of 100 μM of Chloroquine. Five hours later, serum was added at 5 % to the culture media. Cells were lysed 24 hrs later, protein concentration determined by Bradford assay and luciferase activity was measured for HeLa-CD4-LTR-Luc cells. Results corresponding to luciferase activity per protein concentration of each sample are shown as relative light unit (RLU). As for the OM10.1 cells, RNA was extracted using the RNA extraction kit (Qiagen) and DNA contamination was removed using Turbo-DNAse kit (Ambion). First-strand cDNA was synthesized using SuperscriptIII^TM first-strand cDNA kit (Invitrogen) and random hexamers as first-strand primers. qRT-PCR was performed with an aliquot of cDNA as template, using LightCycler? 480 SYBR Green I Master in a 20 µL reaction according to the manufacturer’s instructions. The mRNAs from each sample were used as negative control. Primer sequences for GAPDH (13) and all viral mRNAs as previously described (59). In HeLa-CD4-LTR-LacZ cells. It was performed as previously described (10). Briefly, cells were plated at 1×10^4 cells per well of a 96-well plate. Twenty-four hrs later HIV-1 NL4-3 strain was added in the presence of testing compound or DMSO. Seventy-two hrs post infection, cells were disrupted in lysis buffer (60 mM Na2HPO4, 40 mM NaH2PO4, 10 mM KCl, 10 mM MgSO4, 2.5 mM EDTA, 50 mM ß-mercaptoethanol, 0.125 % Nonidet P-40) and a quantitative chlorophenol red-ß-D-galactopyranoside (CPRG)-based (Boehringer Mannheim) assay was performed. The cell extracts were incubated in a reaction buffer (0.9 M phosphate buffer [pH 7.4], 9 mM MgCl2, 11 mM ß-mercaptoethanol, 7 mM CPRG) until a red color developed and measured with an LP400 (Becton Dickinson) plate reader at 572 nm.

## CN(C)C1CC23CCC4(O2)C(=CCC2(C)C(c5ccc6ccncc6c5)=CCC24)C=C3C(O)C1O (stereo not drawn) [dCA, didehydro-cortistatin A]
Recombinant Tat
  protection of Tat from proteinase K degradation: Tat degradation by PK was significantly reduced
NL4-3 strain; HeLa-CD4-LTR-LacZ cells infected with NL4-3, LacZ at 72 h, mean ± SD, n = 2 to 3, read-out: IC50
  IC50: 0.6 ± 0.3 nM
NL4-3 strain; span of Table 2 and earlier value, read-out: dCA inhibitory activity in cell-based assays
  IC50: 0.6 to 2 nM
